Data published in patent US20230203058A1, “MACROCYCLIC DIAMINE DERIVATIVES AS ENT INHIBITORS FOR THE TREATMENT OF CANCERS, AND COMBINATION THEREOF WITH ADENOSINE RECEPTOR ANTAGONISTS” (ITEOS BELGIUM SA, priority 2020, published 2023).

The compounds below were run against T1, human ENT1 (Homo sapiens, UniProt Q99808) (assay: ENT1 binding assay (competition with Sahenta-DY647 on JAR cells)). Conditions: competition with Sahenta-DY647 100 nM, 4° C.
T1 sequence (Q99808 1-456): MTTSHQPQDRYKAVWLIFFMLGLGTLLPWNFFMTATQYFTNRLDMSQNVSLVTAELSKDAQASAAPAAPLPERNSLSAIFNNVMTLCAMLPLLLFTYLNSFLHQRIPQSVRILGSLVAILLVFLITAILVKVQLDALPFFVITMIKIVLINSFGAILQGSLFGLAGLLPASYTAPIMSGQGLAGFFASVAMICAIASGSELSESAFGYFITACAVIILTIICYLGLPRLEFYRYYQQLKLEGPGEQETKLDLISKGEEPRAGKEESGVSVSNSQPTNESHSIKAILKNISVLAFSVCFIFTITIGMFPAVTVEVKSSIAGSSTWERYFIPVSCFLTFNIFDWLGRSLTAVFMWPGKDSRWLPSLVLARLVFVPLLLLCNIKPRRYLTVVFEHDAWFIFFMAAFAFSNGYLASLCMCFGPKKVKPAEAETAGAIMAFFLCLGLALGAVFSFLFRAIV
Design: JAR cells expressing ENT1 were bought from ATCC® (HTB-144TM); host or cells: JAR cells (human choriocarcinoma line; whole cells)
Description: The present assay aims at showing that the compounds of the present invention can bind to human ENT1. The principle of the assay is a competition between the compounds of this invention and Sahenta-DY647, an ENT1 inhibitor that emits fluorescence (Ex = 630 nm, Em = 670 nm). By measuring the fluorescence at the end of the assay we could assess the binding potency of the compounds of the present invention.
JAR cells expressing ENT1 were bought from ATCC® (HTB-144TM). Cells were cultured in RPMI 1640 medium (LONZA®, #BE12-702F/U1) supplemented with 10% FBS (GIBCO®, #10270-106), 10 mM Hepes (LONZA®, #BE17-737E), 1 mM Sodium Pyruvate (LONZA®, #BE13-115E) and 2% Penicillin/Streptomycin (LONZA®, #DE17-603E) at 37° C. and 5% CO2. The assay was conducted on the following buffer: HBSS (LONZA®, #LO-527F) supplemented with 10 mM Hepes (LONZA®, #BE17-737E) and 0.1% BSA (Miltenyi®, #130-091-376) on the day of the assay. JAR cells were resuspended in the described buffer. Compounds of the present invention and Sahenta-DY647 were diluted 200X in the described buffer.
A total of 50000 cells were pre-incubated for 30 min at 4° C. with the compounds of the present invention before adding the corresponded IC90 of Sahenta-DY647 (100 nM) and incubate once more for 30 min at 4° C. The total volume of the reaction was 100 µL (50 µL of cells, 25 µL of the compounds of the present invention and 25 µL of Sahenta-DY647) in a 96 well plate, U-bottom (Greiner®, #650-180). The plates were washed 2X by centrifugation (4 min, 400 rcf at 4° C.) in the same buffer. Cells were resuspended in 70 µL of the buffer and 50 µL was transferred to a Black 384 Optiplate (PerkinElmer®, #6007279). Fluorescence (Ex = 630 nm, Em = 670 nm) was acquired on a Spectramax i3x (Molecular Devices®).

Structure (SMILES)	IC50 [nM]
COc1cc2cc(c1OC)OCCCC(OC(=O)c1ccc(Br)c(C#N)c1)CCN1CCCN(CCCOC2=O)CC1 (stereo not drawn) [Compound 48, 74,75-dimethoxy-6-oxo-5,8-dioxa-1(1,4)-diazepana-7(1,3)-benzenacyclotetradecaphane-12-yl 4-bromo-3-cyanobenzoate]	1 to 20
COc1cc(C(=O)O[C@@H]2CCCOc3cc(cc(Cl)c3C(N)=O)C(=O)NCCCN3CCCN(CC2)CC3)cc(OC)c1OC [Compound 28, (12R)-74-carbamoyl-75-chloro-6-oxo-8-oxa-5-aza-1(1,4)-diazepana-7(1,3)-benzenacyclotetradecaphane-12-yl 3,4,5-trimethoxybenzoate]	1 to 20
COc1cc2cc(c1OC)OCCCC(OC(=O)c1cc(C)cc(C(F)(F)F)c1)CCN1CCCN(CCCOC2=O)CC1 (stereo not drawn) [Compound 49, 74,75-dimethoxy-6-oxo-5,8-dioxa-1(1,4)-diazepana-7(1,3)-benzenacyclotetradecaphane-12-yl 3-methyl-5-(trifluoromethyl)benzoate]	20 to 500
COc1cc(C(=O)O[C@H]2CCCOc3cccc(c3)C(=O)OCCCN3CCCN(CC2)CC3)cc(OC)c1OC (stereo in doubt) [Compound 17, (12S)-6-oxo-5,8-dioxa-1(1,4)-diazepana-7(1,3)-benzenacyclotetradecaphane-12-yl 3,4,5-trimethoxybenzoate]	> 500
COc1cc2cc(c1OC)OCCCC(OC(=O)C1CC(C)(C)C1)CCN1CCCN(CCCOC2=O)CC1 (stereo not drawn) [Compound 65, 74,75-dimethoxy-6-oxo-5,8-dioxa-1(1,4)-diazepana-7(1,3)-benzenacyclotetradecaphane-12-yl 3,3-dimethylcyclobutane-1-carboxylate]	20 to 500
COc1cc(C(=O)O[C@H]2CCCn3ncc4c(Cl)cc(cc43)C(=O)NCCCN3CCCN(CC2)CC3)cc(OC)c1OC [Compound 15, (10S)-14-chloro-2-oxo-11H-3-aza-1(6,1)-indazola-7(1,4)-diazepanacyclotridecaphane-10-yl 3,4,5-trimethoxybenzoate]	> 500
COc1ccc(C(=O)OC2CCCOc3cc(cc(OC)c3OC)C(=O)OCCCN3CCCN(CC2)CC3)c(F)c1 (stereo not drawn) [Compound 50, 74,75-dimethoxy-6-oxo-5,8-dioxa-1(1,4)-diazepana-7(1,3)-benzenacyclotetradecaphane-12-yl 2-fluoro-4-methoxybenzoate]	1 to 20
COc1cc2cc(c1OC)OCCCC(OC(=O)c1ccccc1F)CCN1CCCN(CCCOC2=O)CC1 (stereo not drawn) [Compound 47, 74,75-dimethoxy-6-oxo-5,8-dioxa-1(1,4)-diazepana-7(1,3)-benzenacyclotetradecaphane-12-yl 2-fluorobenzoate]	1 to 20
COc1cc(C(=O)O[C@H]2CCCOc3cc(cc(OC)c3OC)C(=O)NCCCN3CCCN(CC2)CC3)cc(OC)c1OC [Compound 9, (12S)-74,75-dimethoxy-6-oxo-8-oxa-5-aza-1(1,4)-diazepana-7(1,3)-benzenacyclotetradecaphane-12-yl 3,4,5-trimethoxybenzoate]	> 500
COc1cc2cc(c1OC)OCCCC(OC(=O)CC(C)C)CCN1CCCN(CCCOC2=O)CC1 (stereo not drawn) [Compound 61, 74,75-dimethoxy-6-oxo-5,8-dioxa-1(1,4)-diazepana-7(1,3)-benzenacyclotetradecaphane-12-yl 3-methylbutanoate]	20 to 500
COc1cc2cc(c1OC)OCCCC(OC(=O)c1cccc(S(C)(=O)=O)c1)CCN1CCCN(CCCOC2=O)CC1 (stereo not drawn) [Compound 45, 74,75-dimethoxy-6-oxo-5,8-dioxa-1(1,4)-diazepana-7(1,3)-benzenacyclotetradecaphane-12-yl 3-(methylsulfonyl)benzoate]	1 to 20

The next lines start with the values.

IC50 [nM]	Structure (SMILES)
1 to 20	COc1cc2cc(c1OC)OCCCC(OC(=O)c1cccc(Cl)c1Cl)CCN1CCCN(CCCOC2=O)CC1 (stereo not drawn) [Compound 78, 74,75-dimethoxy-6-oxo-5,8-dioxa-1(1,4)-diazepana-7(1,3)-benzenacyclotetradecaphane-12-yl 2,3-dichlorobenzoate]
20 to 500	COc1cc(C(=O)O[C@H]2CCCOc3cc(cc(Cl)c3C(N)=O)C(=O)NCCCN3CCCN(CC2)CC3)cc(OC)c1OC [Compound 121, (12S)-74-carbamoyl-75-chloro-6-oxo-8-oxa-5-aza-1(1,4)-diazepana-7(1,3)-benzenacyclotetradecaphane-12-yl 3,4,5-trimethoxybenzoate]
1 to 20	CNC(=O)CCC(=O)OC1CCCOc2cc(cc(OC)c2OC)C(=O)OCCCN2CCCN(CC1)CC2 (stereo not drawn) [Compound 101, 74,75-dimethoxy-6-oxo-5,8-dioxa-1(1,4)-diazepana-7(1,3)-benzenacyclotetradecaphane-12-yl 4-(methylamino)-4-oxobutanoate]
20 to 500	COc1cc2cc(c1OC)OCCCC(OC(=O)[C@H]1[C@@H]3COC[C@@H]31)CCN1CCCN(CCCOC2=O)CC1 (stereo partly drawn) [Compound 67, 74,75-dimethoxy-6-oxo-5,8-dioxa-1(1,4)-diazepana-7(1,3)-benzenacyclotetradecaphane-12-yl (1R,5S,6r)-3-oxabicyclo[3.1.0]hexane-6-carboxylate]
> 500	COc1cc2cc(c1OC)OCCC[C@H](O/N=C/c1ccccc1)CCN1CCCN(CCCNC2=O)CC1 (stereo in doubt) [Compound 116, (E)-benzaldehyde O-((12S)-74,75-dimethoxy-6-oxo-8-oxa-5-aza-1(1,4)-diazepana-7(1,3)-benzenacyclotetradecaphane-12-yl) oxime]
1 to 20	COc1cc2cc(c1OC)OCCCC(OC(=O)c1c(F)cccc1F)CCN1CCCN(CCCOC2=O)CC1 (stereo not drawn) [Compound 71, 74,75-dimethoxy-6-oxo-5,8-dioxa-1(1,4)-diazepana-7(1,3)-benzenacyclotetradecaphane-12-yl 2,6-difluorobenzoate]
1 to 20	COc1cc(C(=O)OC2CCCOc3cc(cc(C(N)=O)c3Cl)C(=O)OCCCN3CCCN(CC2)CC3)cc(OC)c1OC (stereo not drawn) [Compound 120, 75-carbamoyl-74-chloro-6-oxo-5,8-dioxa-1(1,4)-diazepana-7(1,3)-benzenacyclotetradecaphane-12-yl 3,4,5-trimethoxybenzoate]
1 to 20	COc1cc2cc(c1OC)OCCCC(OC(=O)CCC#N)CCN1CCCN(CCCOC2=O)CC1 (stereo not drawn) [Compound 95, 74,75-dimethoxy-6-oxo-5,8-dioxa-1(1,4)-diazepana-7(1,3)-benzenacyclotetradecaphane-12-yl 3-cyanopropanoate]
1 to 20	COc1cc(C(=O)O[C@H]2CCCOc3cc(cc(OC)c3OC)C(=O)OCCCN3CCN(CC2)CC(F)(F)C3)cc(OC)c1OC [Compound 119, (12S)-16,16-difluoro-74,75-dimethoxy-6-oxo-5,8-dioxa-1(1,4)-diazepana-7(1,3)-benzenacyclotetradecaphane-12-yl 3,4,5-trimethoxybenzoate]
1 to 20	COc1cc2cc(c1OC)OCCCC(OC(=O)C1CC(=O)N(Cc3ccccc3)C1)CCN1CCCN(CCCOC2=O)CC1 (stereo not drawn) [Compound 69, 74,75-dimethoxy-6-oxo-5,8-dioxa-1(1,4)-diazepana-7(1,3)-benzenacyclotetradecaphane-12-yl 1-benzyl-5-oxopyrrolidine-3-carboxylate]
1 to 20	COc1cc2cc(c1OC)OCCCC(OC(=O)c1ccc(-c3cnco3)cc1)CCN1CCCN(CCCOC2=O)CC1 (stereo not drawn) [Compound 90, 74,75-dimethoxy-6-oxo-5,8-dioxa-1(1,4)-diazepana-7(1,3)-benzenacyclotetradecaphane-12-yl 4-(oxazol-5-yl)benzoate]
1 to 20	COc1cc2cc(c1OC)OCCCC(OC(=O)CCOc1ccc(F)cc1)CCN1CCCN(CCCOC2=O)CC1 (stereo not drawn) [Compound 104, 74,75-dimethoxy-6-oxo-5,8-dioxa-1(1,4)-diazepana-7(1,3)-benzenacyclotetradecaphane-12-yl 3-(4-fluorophenoxy)propanoate]
1 to 20	COc1cc2cc(c1OC)OCCCC(n1nnc(-c3ccccc3)n1)CCN1CCCN(CCCOC2=O)CC1 (stereo not drawn) [Compound 107, 74,75-dimethoxy-12-(5-phenyl-2 H-tetrazol-2-yl)-5,8-dioxa-1(1,4)-diazepana-7(1,3)-benzenacyclotetradecaphan-6-one]
